Experimental data reported in ChEMBL document CHEMBL1201862, “PubChem BioAssay data set” (2004).
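Dose response: 5 concentrations. Exposure: 48 h. Format: 96-well plates. Endpoint: linear interpolation; highest concentration if not reached. GI50 is the concentration that inhibits growth by half.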 Active and inactive are the calls of the source. Rule as the data show it: active = GI50 up to about 1.1 µM and inactive = higher.

What was measured:
Test in all cases: NCI anticancer screen, dose series, 48 h
[1] = test system: HOP-92
[2] = test system: SK-OV-3
[3] = test system: EKVX
[4] = test system: SF-539
[5] = test system: COLO 205
[6] = test system: NCI-H522
[7] = test system: M14
[8] = test system: OVCAR-4
[9] = test system: 786-0
[10] = test system: SK-MEL-28
[11] = test system: NCI-H23
[12] = test system: SNB-19
[13] = test system: MDA-MB-231
[14] = test system: CAKI-1
[15] = test system: SK-MEL-2
[16] = test system: SW-620
[17] = test system: U-251
[18] = test system: HCC 2998
[19] = test system: A549
[20] = test system: UACC-62
[21] = test system: MDA-MB-435
[22] = test system: HL-60
[23] = test system: OVCAR-5
[24] = test system: PC-3
[25] = test system: RXF 393
[26] = test system: CCRF-CEM
[27] = test system: KM12
[28] = test system: UACC-257
[29] = test system: NCI/ADR-RES
[30] = test system: BT-549
[31] = test system: OVCAR-3
[32] = test system: TK-10
[33] = test system: NCI-H460
[34] = test system: T47D
[35] = test system: Hs-578T
[36] = test system: SF-268
[37] = test system: MDA-N
[38] = test system: IGROV-1
[39] = test system: MCF7
[40] = test system: SK-MEL-5
[41] = test system: SNB-75
[42] = test system: NCI-H226
[43] = test system: RPMI-8226
[44] = test system: SF-295
[45] = test system: DU-145
[46] = test system: HCT-15
[47] = test system: LOX IMVI
[48] = test system: MOLT-4
[49] = test system: K562
[50] = test system: HOP-62
[51] = test system: ACHN
[52] = test system: SR
[53] = test system: OVCAR-8
[54] = test system: Malme-3M
[55] = test system: SN12C
[56] = test system: HCT-116
[57] = test system: HT-29
[58] = test system: UO-31

With Cc1nn(C(=O)c2ccc(Cl)cc2)c2c1C(/C=C/c1ccccc1)SC(=N)N2 (stereo not drawn) the GI50 [1] was > 10 µM (inactive), the GI50 [2] was > 10 µM (inactive) and the GI50 [3] was > 10 µM (inactive). For the same molecule, the GI50 [4] was > 10 µM (inactive), the GI50 [5] was > 10 µM (inactive) and the GI50 [6] was > 10 µM (inactive). For the same molecule, the GI50 [7] was > 10 µM (inactive), the GI50 [8] was > 10 µM (inactive) and the GI50 [9] was > 10 µM (inactive). The GI50 [10] was > 10 µM (inactive), the GI50 [11] was > 10 µM (inactive) and the GI50 [12] was > 10 µM (inactive). The GI50 [13] was > 10 µM (inactive), the GI50 [14] was > 10 µM (inactive) and the GI50 [15] was > 10 µM (inactive). The GI50 [16] was > 10 µM (inactive), the GI50 [17] was > 10 µM (inactive) and the GI50 [18] was > 10 µM (inactive). For the same molecule, the GI50 [19] was > 10 µM (inactive), the GI50 [20] was > 10 µM (inactive) and the GI50 [21] was > 10 µM (inactive). For the same molecule, the GI50 [22] was > 10 µM (inactive), the GI50 [23] was > 10 µM (inactive) and the GI50 [24] was > 10 µM (inactive). For the same molecule, the GI50 [25] was > 10 µM (inactive), the GI50 [26] was > 10 µM (inactive) and the GI50 [27] was > 10 µM (inactive). For the same molecule, the GI50 [28] was > 10 µM (inactive), the GI50 [29] was > 10 µM (inactive) and the GI50 [30] was > 10 µM (inactive). The GI50 [31] was > 10 µM (inactive), the GI50 [32] was > 10 µM (inactive) and the GI50 [33] was > 10 µM (inactive). The GI50 [34] was > 10 µM (inactive), the GI50 [35] was > 10 µM (inactive) and the GI50 [36] was > 10 µM (inactive). The GI50 [37] was > 10 µM (inactive), the GI50 [38] was > 10 µM (inactive) and the GI50 [39] was > 10 µM (inactive). For the same molecule, the GI50 [40] was > 10 µM (inactive), the GI50 [41] was > 10 µM (inactive) and the GI50 [42] was > 10 µM (inactive). The GI50 [43] was > 10 µM (inactive), the GI50 [44] was > 10 µM (inactive) and the GI50 [45] was > 10 µM (inactive). The GI50 [46] was over 10 µM, the GI50 [47] was > 10 µM (inactive) and the GI50 [48] was > 10 µM (inactive). For the same molecule, the GI50 [49] was > 10 µM (inactive), the GI50 [50] was > 10 µM (inactive) and the GI50 [51] was > 10 µM (inactive). The GI50 [52] was > 10 µM (inactive), the GI50 [53] was > 10 µM (inactive) and the GI50 [54] was > 10 µM (inactive). The GI50 [55] was > 10 µM (inactive), the GI50 [56] was > 10 µM (inactive) and the GI50 [57] was > 10 µM (inactive).

O=C1CC(n2ccnc2)c2c(Cl)sc(Cl)c21 (stereo not drawn) was tested, and the GI50 [2] was 23.1 µM (inactive), the GI50 [3] was 19.2 µM (inactive) and the GI50 [4] was 17.2 µM (inactive). The GI50 [5] was 18.2 µM (inactive), the GI50 [6] was 6.31 µM (inactive) and the GI50 [7] was 15.3 µM (inactive). The GI50 [8] was 19.5 µM (inactive), the GI50 [9] was 6.79 µM (inactive) and the GI50 [10] was 23.7 µM (inactive). For the same molecule, the GI50 [11] was 14.9 µM (inactive), the GI50 [12] was 20.3 µM (inactive) and the GI50 [13] was 18.9 µM (inactive). For the same molecule, the GI50 [14] was 19.5 µM (inactive), the GI50 [15] was 21.4 µM (inactive) and the GI50 [16] was 11 µM (inactive). For the same molecule, the GI50 [17] was 17.7 µM (inactive), the GI50 [19] was 24.5 µM (inactive) and the GI50 [20] was 15.5 µM (inactive). The GI50 [21] was 17.1 µM (inactive), the GI50 [22] was 51.8 µM (inactive) and the GI50 [23] was 22.5 µM (inactive). The GI50 [24] was 15.7 µM (inactive), the GI50 [25] was 16.4 µM (inactive) and the GI50 [26] was 4.78 µM (inactive). The GI50 [27] was 15.6 µM (inactive), the GI50 [28] was 15.5 µM (inactive) and the GI50 [29] was 23.8 µM (inactive). For the same molecule, the GI50 [30] was 15.3 µM (inactive), the GI50 [31] was 15.4 µM (inactive) and the GI50 [32] was 20.2 µM (inactive). For the same molecule, the GI50 [33] was 26 µM (inactive), the GI50 [34] was 21.9 µM (inactive) and the GI50 [35] was 30.4 µM (inactive). The GI50 [36] was 21.9 µM (inactive), the GI50 [37] was 16.2 µM (inactive) and the GI50 [38] was 12.7 µM (inactive). For the same molecule, the GI50 [39] was 4.94 µM (inactive), the GI50 [40] was 18.4 µM (inactive) and the GI50 [41] was 20.6 µM (inactive). The GI50 [42] was 31.6 µM (inactive), the GI50 [43] was 2.28 µM (inactive) and the GI50 [44] was 27.4 µM (inactive). The GI50 [45] was 16.1 µM (inactive), the GI50 [46] was 14.2 µM and the GI50 [47] was 6.3 µM (inactive). The GI50 [48] was 3.86 µM (inactive), the GI50 [49] was 7.89 µM (inactive) and the GI50 [50] was 18.7 µM (inactive). The GI50 [51] was 18.1 µM (inactive), the GI50 [52] was 2.92 µM (inactive) and the GI50 [58] was 14 µM (inactive). The GI50 [53] was 13.1 µM (inactive), the GI50 [54] was 17.4 µM (inactive) and the GI50 [55] was 17.7 µM (inactive). For the same molecule, the GI50 [56] was 14.2 µM (inactive) and the GI50 [57] was 19.8 µM (inactive).
